Reference: patent US20230407243A1, “GENETIC PLATFORM TO INVESTIGATE THE FUNCTIONS OF BACTERIAL DRUG EFFLUX PUMPS” (priority 2022, published 2023)

How the values were obtained:
Format in all cases: cell-based, Escherichia coli
EKO-35 rspA (pCA24N) = assay: MIC of strains harboring ASKA plasmids; settings: 0.1 mM IPTG; for MIC: EKO-35 rspA; for MIC, EKO-35 rspA (pCA24N), Chlor +: 4 μg/mL chloramphenicol selection; for MIC, EKO-35 rspA (pCA24N), Chlor −: no plasmid selection
EKO-35 yjfC (pCA24N) = assay: MIC of strains harboring ASKA plasmids; settings: 0.1 mM IPTG; for MIC: EKO-35 yjfC; for MIC, EKO-35 yjfC (pCA24N), Chlor +: 4 μg/mL chloramphenicol selection; for MIC, EKO-35 yjfC (pCA24N), Chlor −: no plasmid selection
[1] = system: EKO-35 porinated strain expressing acrD; assay: Checkerboard synergy (FICI), porinated strain; settings: acrD expressed in the porinated strain
How it was run: (§1)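 MHB II, CLSI microdilution checkerboard, colony-resuspension inoculum, solvent controls per plate. MIC = no growth at OD600. FICI summed from FIC of PAβN/NMP and antibiotic; <0.5 synergistic, >2.0 antagonistic.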

[2] = system: EKO-35 porinated strain expressing acrF (AcrEF); assay: Checkerboard synergy (FICI), porinated strain
How it was run: as §1

[3] = system: EKO-35-Pore strains producing other efflux pumps; assay: Checkerboard synergy (FICI), porinated strain
How it was run: as §1

[4] = EKO-35 acrEF Pore, NMP + antibiotic
[5] = EKO-35 acrEF Pore, PAβN + antibiotic
[6] = strain EKO-35 acrEF Pore, NMP + antibiotic
[7] = EKO-35 mdtEF Pore, PAβN + antibiotic

benzalkonium chloride
MIC (EKO-35 rspA (pCA24N); Chlor + (4 μg/mL)): 0.781 µg/mL
MIC (EKO-35 rspA (pCA24N); Chlor −): 0.781 µg/mL
MIC (EKO-35 yjfC (pCA24N); Chlor + (4 μg/mL)): 0.781 µg/mL
MIC (EKO-35 yjfC (pCA24N); Chlor −): 0.781 µg/mL

Cn1cc(Br)c(-c2cccc(NC(=O)Nc3ccc(OC(F)(F)F)cc3)c2)n1 [compound 14]
MIC, EKO-35 rspA (pCA24N), Chlor + (EKO-35 rspA (pCA24N)): >5 μg/mL
MIC, EKO-35 rspA (pCA24N), Chlor − (EKO-35 rspA (pCA24N)): >5 μg/mL
MIC, EKO-35 yjfC (pCA24N), Chlor + (EKO-35 yjfC (pCA24N)): >5 μg/mL
MIC, EKO-35 yjfC (pCA24N), Chlor − (EKO-35 yjfC (pCA24N)): >5 μg/mL

N#Cc1ccc(-c2c(NC(=O)C(Cl)Cl)oc(-c3cccs3)c2C#N)cc1 [compound 2]
MIC, EKO-35 rspA (pCA24N), Chlor + (EKO-35 rspA (pCA24N)): >5 μg/mL
MIC, EKO-35 rspA (pCA24N), Chlor − (EKO-35 rspA (pCA24N)): >5 μg/mL
MIC, EKO-35 yjfC (pCA24N), Chlor + (EKO-35 yjfC (pCA24N)): >5 μg/mL
MIC, EKO-35 yjfC (pCA24N), Chlor − (EKO-35 yjfC (pCA24N)): >5 μg/mL

CC[C@H]1OC(=O)[C@H](C)[C@@H](O[C@H]2C[C@@](C)(OC)[C@@H](O)[C@H](C)O2)[C@H](C)[C@@H](O[C@@H]2O[C@H](C)C[C@H](N(C)C)[C@H]2O)[C@](C)(O)C[C@@H](C)C(=O)[C@H](C)[C@@H](O)[C@]1(C)O [erythromycin]
interaction of PAβN in combination with the labelled antibiotic (FICI) [1]: still observed
Effect [2, 4]: Additive
FICI [2, 4]: 0.750
Effect [2, 5]: Synergistic
FICI [2, 5]: 0.385
MICb Alone ([2]; EKO-35 acrEF Pore, antibiotic alone (PAβN checkerboard)): 0.5 µg/mL
MICb Combined ([2]; EKO-35 acrEF Pore, antibiotic in combination with PAβN): 0.13 µg/mL
Effect [2, 6]: Additive (additive (FICI >0.5-1.0))
FICI [2, 6]: 0.750
MICb Alone ([2]; strain EKO-35 acrEF Pore, antibiotic alone): 1 µg/mL
MICb Combined ([2]; strain EKO-35 acrEF Pore, antibiotic in combination with NMP): 0.5 µg/mL
Effect ([3]; EKO-35 mdtEF Pore, NMP + antibiotic): Additive
Effect [3, 7]: Synergistic
FICI [3, 7]: 0.185
MICb Alone ([3]; EKO-35 mdtEF Pore, antibiotic alone (PAβN checkerboard)): 1 µg/mL
MICb Combined ([3]; EKO-35 mdtEF Pore, antibiotic in combination with PAβN): 0.06 µg/mL
Effect ([3]; strain EKO-35 mdtEF Pore, NMP + antibiotic): Additive (additive (FICI >0.5-1.0))
MICb Alone ([3]; strain EKO-35 mdtEF Pore, antibiotic alone): 8 µg/mL
MICb Combined ([3]; strain EKO-35 mdtEF Pore, antibiotic in combination with NMP): 1 µg/mL

O=C(Nc1ccccc1C(=O)Nc1nnc(C(F)(F)F)s1)c1ccccc1Cl [compound 19]
MIC, EKO-35 rspA (pCA24N), Chlor + (EKO-35 rspA (pCA24N)): >5 μg/mL
MIC, EKO-35 rspA (pCA24N), Chlor − (EKO-35 rspA (pCA24N)): >5 μg/mL
MIC, EKO-35 yjfC (pCA24N), Chlor + (EKO-35 yjfC (pCA24N)): >5 μg/mL
MIC, EKO-35 yjfC (pCA24N), Chlor − (EKO-35 yjfC (pCA24N)): >5 μg/mL

COc1cc(Cc2cnc(N)nc2N)cc(OC)c1OC [trimethoprim]
MIC (EKO-35 yjfC (pCA24N); Chlor + (4 μg/mL)): 0.391 µg/mL
